From patent US20220313694A1, “REDUCED CALORIC INTAKE AND ANTICANCER AGENTS FOR THE TREATMENT OF CANCER” (IFOM FONDAZIONE ISTITUTO FIRC DI ONCOLOGIA MOLECOLARE, priority 2021, published 2022)

How the values were obtained:
SUM159 xenografts = experiment: Growth of SUM159 xenografts in NOD scid gamma (NSG) mice; conditions: agent combined with FMD cycles, compared with FMD or drug alone
SUM159 tumour masses = experiment: Ex vivo mammosphere forming assay on SUM159 tumour masses; format: cell-based, human
[1] = system: SUM159 tumour cells derived from in vivo xenografts; experiment: Limiting dilution assay in recipient NSG mice; set-up: species or system human
4T1-luc cells = experiment: Growth of 4T1-luc cells in the mammary fat pad of Balb-c mice; format: in vivo, mouse; conditions: 2DG once a day i.p. combined with 4 cycles of FMD
[2] = system: 4T1 tumour masses (CD44highCD24low subpopulation); experiment: CD44CD24 flow cytometry of 4T1 tumour masses; format: in vivo, mouse; conditions: 2DG combined with FMD
Experimental: Cells were harvested and washed in PBS 1% BSA and pellets were resuspended in blocking buffer (PBS 10% BSA) and incubated for 30 min at 4° C. light protected. After a wash in PBS 1% BSA, cells were incubated with antibodies solution (200 μl/1×10^6 cells) for 45 min at 4° C. […] SUM159 samples were analysed by flow cytometry with Attune NxT flow cytometer and data were processed by Kaluza analysis software (Beckman coulter, version 2.0). 4T1 samples were analysed by flow cytometry with FACSCalibur (BD) and data were processed by FlowJo software.

4T1 cells = experiment: In vitro sphere forming assay, 4T1 cells under CTR/STS; format: cell-based, mouse; conditions: STS (0.5 g/l glucose, 1% FBS), 48 h; agent added (8-Br-cAMP; glucose 1 g/l)
[3] = tumour masses from mice treated with drug under AL diet
[4] = tumour masses from mice treated with agent combined with FMD cycles

SMILES	tumor progression / anti-tumor activity (SUM159 xenografts)	number of ex vivo mammospheres (sphere formation) (SUM159 tumour masses; [3])	time tumor formation was prevented ([1]; donor mice 2DG + FMD, 1,000 cells dilution level)	mouse survival in the limiting dilution assay ([1]; donor mice treated with 2DG + FMD)	tumor progression (4T1-luc cells)	number of ex vivo mammospheres (sphere formation) (SUM159 tumour masses; [4])	CSCs (CD44 and CD24 expression) [2]	in vitro sphere formation (4T1 cells)
CN(C)C(=N)N=C(N)N [metformin]	did not show any additive or synergistic antitumor effect when combined with the FMD	reduced tumor growth and sphere formation						
O=CC[C@@H](O)[C@H](O)[C@H](O)CO [2DG, 2-Deoxy-D-Glucose]	potentiated the effect of FMD both in delaying tumor progression	did not have any effect under AL conditions	more than 150 days	potentiated the effect of FMD in increasing mouse survival compared to 2DG and FMD alone	potentiated the effect of FMD both in delaying tumor progression	decreasing the number of mammospheres derived by tumor masses, even after a multiple serial propagation	reducing CSCs	
OC[C@H]1OC(O)[C@H](O)[C@@H](O)[C@@H]1O (stereo partly drawn) [glucose]	partially reversed the FMD effects on tumor progression					completely rescued the FMD-dependent reduction of mammospheres		reversed the STS effect on 4T1 sphere formation
O=C(Oc1cccc(F)c1OC(=O)c1cccc(O)c1)c1cccc(O)c1 [WZB117]	did not potentiate the anti-tumor activity of FMD	mimicked the effect of FMD on reducing the number of spheres formation						
Nc1ncnc2c1nc(Br)n2[C@@H]1O[C@@H]2COP(=O)(O)O[C@H]2[C@H]1O [8-Br-cAMP, 8-Bromoadenosine 3′,5′-cyclic mono-phosphate]								reversed fasting/STS-dependent spheres reduction
